Toxic doses and inconclusive results are not listed. Rule as the data show it: active = T/C of 150% or more; inactive = T/C below 125%.
System: L1210 leukemia ip in BDF1 mice, survival T/C
Test: NCI In Vivo Anticancer Drug Screen. Data for tumor model L1210 Leukemia (intraperitoneal) in B6D2F1 (BDF1) mice
Conditions: endpoint: mean survival time, higher = longer survival
Summary of the method: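 Tumor cells were implanted, animals were treated, and survival was followed. The result divides the treated measurement by the vehicle-control measurement.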

[1] = dose: 100.0 mg/kg/injection, schedule: Q04DX002 (ip), vehicle: Klucel (hydroxypropylcellulose) (HPC)
[2] = dose: 100.0 mg/kg/injection, schedule: Q01DX001 (ip), vehicle: saline
[3] = dose: 200.0 mg/kg/injection, schedule: Q01DX001 (ip), vehicle: saline
[4] = dose: 400.0 mg/kg/injection, schedule: Q01DX001 (ip), vehicle: saline

Measured: T/C

S=C([S-])N1CCOCC1.S=C([S-])N1CCOCC1.[Zn]
inactive: dose: 4.68 mg/kg/injection, schedule: Q01DX009 (ip), vehicle: saline 90 % of control | dose: 9.37 mg/kg/injection, schedule: Q01DX009 (ip), vehicle: saline 86 % of control | dose: 18.75 mg/kg/injection, schedule: Q01DX009 (ip), vehicle: saline 91 % of control | dose: 18.75 mg/kg/injection, schedule: Q04DX003 (ip), vehicle: saline 100 % of control | dose: 37.5 mg/kg/injection, schedule: Q04DX003 (ip), vehicle: saline 100 % of control | dose: 75.0 mg/kg/injection, schedule: Q01DX001 (ip), vehicle: saline 90 % of control

CN(C)CCCNC(=O)Nc1ccc(Cl)cc1
inactive: dose: 100.0 mg/kg/injection, schedule: Q04DX002 (ip), vehicle: other 101 % of control | dose: 200.0 mg/kg/injection, schedule: Q04DX002 (ip), vehicle: other 101 % of control | dose: 400.0 mg/kg/injection, schedule: Q04DX002 (ip), vehicle: other 97 % of control

CC1(C)CN(CCC#N)C(c2ccc([N+](=O)[O-])cc2)O1 (centres undefined)
inactive: dose: 50.0 mg/kg/injection, schedule: Q01DX001 (ip), vehicle: carboxymethylcellulose (CMC) 106 % of control | dose: 100.0 mg/kg/injection, schedule: Q01DX001 (ip), vehicle: carboxymethylcellulose (CMC) 106 % of control | dose: 200.0 mg/kg/injection, schedule: Q01DX001 (ip), vehicle: carboxymethylcellulose (CMC) 114 % of control | dose: 400.0 mg/kg/injection, schedule: Q01DX001 (ip), vehicle: carboxymethylcellulose (CMC) 108 % of control

OCc1ccc(-c2ccccc2)cc1
inactive: dose: 25.0 mg/kg/injection, schedule: Q04DX003 (ip), vehicle: Klucel (hydroxypropylcellulose) (HPC) 108 % of control | dose: 50.0 mg/kg/injection, schedule: Q01DX005 (ip), vehicle: saline 94 % of control | dose: 50.0 mg/kg/injection, schedule: Q04DX003 (ip), vehicle: Klucel (hydroxypropylcellulose) (HPC) 103 % of control | dose: 100.0 mg/kg/injection, schedule: Q01DX005 (ip), vehicle: saline 112 % of control | dose: 100.0 mg/kg/injection, schedule: Q04DX003 (ip), vehicle: Klucel (hydroxypropylcellulose) (HPC) 103 % of control | dose: 200.0 mg/kg/injection, schedule: Q01DX005 (ip), vehicle: saline 100 % of control | dose: 400.0 mg/kg/injection, schedule: Q01DX005 (ip), vehicle: saline 102 % of control

CCCNC(=O)Nc1ccc(OCC)cc1
inactive: [1] 105 % of control | dose: 200.0 mg/kg/injection, schedule: Q04DX002 (ip), vehicle: Klucel (hydroxypropylcellulose) (HPC) 115 % of control | dose: 400.0 mg/kg/injection, schedule: Q04DX002 (ip), vehicle: Klucel (hydroxypropylcellulose) (HPC) 105 % of control

CN=C(c1ccc(NC(=O)c2ccc(C(=O)Nc3ccc(C(=NC)N(C)Cc4ccccc4)cc3)cc2)cc1)N(C)Cc1ccccc1
inactive: dose: 1.88 mg/kg/injection, schedule: Q01DX Z (ip), vehicle: saline 104 % of control | dose: 3.75 mg/kg/injection, schedule: Q01DX Z (ip), vehicle: saline 98 % of control | dose: 7.5 mg/kg/injection, schedule: Q01DX Z (ip), vehicle: saline 97 % of control

COc1ccc(NP2(=O)OCC(C)([N+](=O)[O-])CO2)cc1 (centres undefined)
inactive: dose: 50.0 mg/kg/injection, schedule: Q01DX001 (ip), vehicle: saline 98 % of control | [2] 102 % of control | [3] 98 % of control | [4] 96 % of control

O=S(=O)(O)Nc1ccc(Cl)cc1
inactive: dose: 25.0 mg/kg/injection, schedule: Q04DX002 (ip), vehicle: Klucel (hydroxypropylcellulose) (HPC) 102 % of control | dose: 50.0 mg/kg/injection, schedule: Q04DX002 (ip), vehicle: Klucel (hydroxypropylcellulose) (HPC) 102 % of control | [1] 102 % of control

COc1nsc(N)n1
inactive: dose: 100.0 mg/kg/injection, schedule: Q01DX001 (ip), vehicle: saline with Tween-80 100 % of control | dose: 200.0 mg/kg/injection, schedule: Q01DX001 (ip), vehicle: saline with Tween-80 104 % of control | dose: 400.0 mg/kg/injection, schedule: Q01DX001 (ip), vehicle: saline with Tween-80 91 % of control

CCCCCCCCCCC1CCC2CCC3CCCC4CCC1C2C34 (centres undefined)
inactive: dose: 25.0 mg/kg/injection, schedule: Q04DX003 (ip), vehicle: acetone 96 % of control | dose: 50.0 mg/kg/injection, schedule: Q04DX003 (ip), vehicle: acetone 88 % of control | [2] 88 % of control | dose: 100.0 mg/kg/injection, schedule: Q04DX003 (ip), vehicle: acetone 86 % of control | [3] 90 % of control

COc1ccc2nc(C)c(COC(C)=O)c(Cl)c2c1
inactive: dose: 100.0 mg/kg/injection, schedule: Q01DX009 (ip), vehicle: saline 102 % of control | dose: 100.0 mg/kg/injection, schedule: Q04DX003 (ip), vehicle: saline 100 % of control | dose: 200.0 mg/kg/injection, schedule: Q01DX009 (ip), vehicle: saline 92 % of control | dose: 200.0 mg/kg/injection, schedule: Q04DX003 (ip), vehicle: saline 96 % of control | dose: 400.0 mg/kg/injection, schedule: Q01DX009 (ip), vehicle: saline 97 % of control | dose: 400.0 mg/kg/injection, schedule: Q04DX003 (ip), vehicle: saline 112 % of control

NNc1ccc(CC(=O)O)cc1
inactive: [2] 98 % of control | [3] 93 % of control | [4] 98 % of control

N#CC1(c2ccccc2)CCCC1(C#N)c1ccccc1 (centres undefined)
inactive: dose: 75.0 mg/kg/injection, schedule: Q01DX001 (ip), vehicle: carboxymethylcellulose (CMC) 86 % of control | dose: 150.0 mg/kg/injection, schedule: Q01DX001 (ip), vehicle: carboxymethylcellulose (CMC) 88 % of control | dose: 300.0 mg/kg/injection, schedule: Q01DX001 (ip), vehicle: carboxymethylcellulose (CMC) 86 % of control

CC(=O)OCC1OC(SP(C)C)C(OC(C)=O)C(OC(C)=O)C1OC(C)=O (centres undefined)
inactive: dose: 100.0 mg/kg/injection, schedule: Q01DX001 (ip), vehicle: Klucel (hydroxypropylcellulose) (HPC) 101 % of control | dose: 200.0 mg/kg/injection, schedule: Q01DX001 (ip), vehicle: Klucel (hydroxypropylcellulose) (HPC) 98 % of control | dose: 400.0 mg/kg/injection, schedule: Q01DX001 (ip), vehicle: Klucel (hydroxypropylcellulose) (HPC) 96 % of control

O=c1c(Br)c[nH]cc1Br
inactive: dose: 12.5 mg/kg/injection, schedule: Q01DX009 (ip), vehicle: Klucel (hydroxypropylcellulose) (HPC) 91 % of control | dose: 25.0 mg/kg/injection, schedule: Q01DX009 (ip), vehicle: Klucel (hydroxypropylcellulose) (HPC) 111 % of control | dose: 50.0 mg/kg/injection, schedule: Q01DX009 (ip), vehicle: Klucel (hydroxypropylcellulose) (HPC) 91 % of control | dose: 100.0 mg/kg/injection, schedule: Q01DX009 (ip), vehicle: Klucel (hydroxypropylcellulose) (HPC) 98 % of control

O=C1Nc2ccccc2C1=Nc1ccc(F)cc1
inactive: [2] 96 % of control | [3] 92 % of control | [4] 94 % of control

C1CCC(=NN=C2CCCCC2)CC1
inactive: dose: 100.0 mg/kg/injection, schedule: Q01DX009 (sc), vehicle: olive oil, sesame oil, peanut oil 103 % of control | dose: 100.0 mg/kg/injection, schedule: Q04DX003 (sc), vehicle: olive oil, sesame oil, peanut oil 100 % of control | dose: 200.0 mg/kg/injection, schedule: Q01DX009 (sc), vehicle: olive oil, sesame oil, peanut oil 100 % of control | dose: 200.0 mg/kg/injection, schedule: Q04DX003 (sc), vehicle: olive oil, sesame oil, peanut oil 106 % of control | dose: 400.0 mg/kg/injection, schedule: Q01DX009 (sc), vehicle: olive oil, sesame oil, peanut oil 101 % of control | dose: 400.0 mg/kg/injection, schedule: Q04DX003 (sc), vehicle: olive oil, sesame oil, peanut oil 105 % of control
